The record followed here is US4205170A, “Propionic acid derivatives” (priority 1976, dated 1980).

The subject of the assay is edema in the hind paws (carrageenan). Put plainly: carrageenan-induced hind paw edema, oral administration. Particulars: Rattus norvegicus. Format: in vivo, male Wistar rats. The method, then: That is, male Wistar rats weighing about 100 g, one group consisting of 5 to 7 animals, were given orally the compounds according to the present invention and then edema was induced in the hind paws by subcutaneous injections of 0.1 ml of 1% carrageenan 1 hour after the administration of the test compounds, and the volumes of the hind paws were measured by a volume differential meter.

Setting [1] is: 10 mg/kg orally, 1 hr, read-out: Inhibition (%) 1 hr.
The mark [2] stands for this setting: 10 mg/kg orally, 2 hr, read-out: Inhibition (%) 2 hr.
The mark [3] stands for this setting: 10 mg/kg orally, 3 hr, read-out: Inhibition (%) 3 hr.
Setting [4] is: 10 mg/kg orally, 4 hr, read-out: Inhibition (%) 4 hr.
The mark [5] stands for this setting: 10 mg/kg orally, 5 hr, read-out: Inhibition (%) 5 hr.
Where [6] appears, read: 10 mg/kg orally, 6 hr, read-out: Inhibition (%) 6 hr.
The mark [7] stands for this setting: 1 h, read-out: Inhibition (%) 1 hr.
The mark [8] stands for this setting: 2 h, read-out: Inhibition (%) 2 hr.
Setting [9] is: 3 h, read-out: Inhibition (%) 3 hr.
Setting [10] is: 4 h, read-out: Inhibition (%) 4 hr.
The mark [11] stands for this setting: 5 h, read-out: Inhibition (%) 5 hr.
Setting [12] is: 6 h, read-out: Inhibition (%) 6 hr.

The structures appear in SMILES notation. Read-outs that look alike come from different tables or passages of the source.

Take `CC(C(N)=O)c1ccc2c(c1)C(=O)Cc1ccccc1S2` (stereo not drawn) [Compound 1, 2-(10,11-dihydro-11-oxodibenzo[b,f]thiepin-2-yl)-propionamide]: the inhibition in vivo at 10 mg/kg runs as follows: under setting [1], 47.1%; under setting [2], 66.7%; under setting [3], 70.5%; under setting [4], 73.6%; under setting [5], 68%; under setting [6], 66%.
On to `CC(C(=O)O)c1ccc2c(c1)C(=O)Cc1ccccc1S2` (stereo not drawn) [Compound 2, 2-(10,11-dihydro-11-oxodibenzo[b,f]thiepin-2-yl)-propionic acid], for which the inhibition in vivo at 1 mg/kg turned out to be 53.8% under setting [7]; 57.3% under setting [8]; 70.9% under setting [9]; 69.6% under setting [10]; 68.7% under setting [11]; 65.6% under setting [12]. Also, the inhibition in vivo at 10 mg/kg runs as follows: under setting [7], 55%; under setting [8], 76.3%; under setting [9], 78%; under setting [10], 78.5%; under setting [11], 74.8%; under setting [12], 70%.
Take `CCOC(=O)C(C)c1ccc2c(c1)C(=O)Cc1ccccc1S2` (stereo not drawn) [Compound 3, Ethyl 2-(10,11-dihydro-11-oxodibenzo[b,f]thiepin-2-yl)-propionate]: the inhibition in vivo at 10 mg/kg is 62.3% under setting [1]; 72% under setting [2]; 79.9% under setting [3]; 78.2% under setting [4]; 74.5% under setting [5]; 64.5% under setting [6].
Regarding `CC(C(=O)O)c1ccc2c(c1)CCc1ccccc1S2` (stereo not drawn) [Compound 4, 2-(10,11-dihydrodibenzo[b,f]thiepin-2-yl)-propionic acid], the inhibition in vivo at 10 mg/kg by setting is: under setting [1], 47.2%; under setting [2], 58.8%; under setting [3], 54.6%; under setting [4], 48.3%; under setting [5], 41%; under setting [6], 35%.
Consider `CCOC(=O)C(C)c1ccc2c(c1)CCc1ccccc1S2` (stereo not drawn) [Compound 5, Ethyl 2-(10,11-dihydrodibenzo[b,f]thiepin-2-yl)-propionate], for which the inhibition in vivo at 10 mg/kg under setting [1] was determined as 56.6%; the inhibition in vivo at 10 mg/kg under setting [2] was 68%; the inhibition in vivo at 10 mg/kg under setting [3] is 67.4%; the inhibition in vivo at 10 mg/kg under setting [4] was 52.2%; the inhibition in vivo at 10 mg/kg under setting [5] amounted to 38.7%; the inhibition in vivo at 10 mg/kg under setting [6] was determined as 29.3%.
As to `CC(C(=O)O)c1ccc2c(c1)Sc1ccccc1CC2=O` (stereo not drawn) [Compound 6, 2-(10,11-dihydro-11-oxodibenzo[b,f]thiepin-3-yl)-propionic acid], the inhibition in vivo at 10 mg/kg turned out to be 65.9% under setting [1]; 41.5% under setting [2]; 31.8% under setting [3]; 26.1% under setting [4]; 22.3% under setting [5]; 20.5% under setting [6].
Consider `CCOC(=O)C(C)c1ccc2c(c1)Sc1ccccc1CC2=O` (stereo not drawn) [Compound 7, Ethyl 2-(10,11-dihydro-11-oxodibenzo[b,f]thiepin-3-yl)-propionate], for which the inhibition in vivo at 10 mg/kg reads like this: under setting [1], 58.7%; under setting [2], 39.6%; under setting [3], 31.2%; under setting [4], 25.9%; under setting [5], 22.3%; under setting [6], 18.8%.
For `CCOC(=O)C(C)c1ccc2c(c1)Sc1ccccc1CC2` (stereo not drawn) [Compound 8, Ethyl 2-(10,11-dihydrodibenzo[b,f]thiepin-3-yl)-propionate], the inhibition in vivo at 10 mg/kg under setting [1] amounted to 43.2%; the inhibition in vivo at 10 mg/kg under setting [2] is 37.8%; the inhibition in vivo at 10 mg/kg under setting [3] amounted to 26.9%; the inhibition in vivo at 10 mg/kg under setting [4] was 20.1%; the inhibition in vivo at 10 mg/kg under setting [5] came to 15.8%; the inhibition in vivo at 10 mg/kg under setting [6] is 15.1%.
Consider `CC(C(=O)O)c1ccc2c(c1)Sc1ccccc1CC2` (stereo not drawn) [Compound 9, 2-(10,11-dihydrodibenzo[b,f]thiepin-3-yl)-propionic acid], for which the inhibition in vivo at 10 mg/kg reads like this: under setting [1], 52.1%; under setting [2], 41%; under setting [3], 27.5%; under setting [4], 21.3%; under setting [5], 16.6%; under setting [6], 16.3%.
With `CC(C(N)=O)c1ccc2c(c1)C(=O)Cc1ccccc1O2` (stereo not drawn) [Compound 10, 2-(10,11-dihydro-11-oxodibenzo[b,f]oxepin-2-yl)-propionamide], the inhibition in vivo at 10 mg/kg by setting is: under setting [1], 71.2%; under setting [2], 69.3%; under setting [3], 76.3%; under setting [4], 76.7%; under setting [5], 56.4%; under setting [6], 34.4%.
On to `CCOC(=O)C(C)c1ccc2c(c1)C(=O)Cc1ccccc1O2` (stereo not drawn) [Compound 11, Ethyl 2-(10,11-dihydro-11-oxodibenzo[b,f]oxepin-2-yl)-propionate], for which the inhibition in vivo at 10 mg/kg came to 21.2% under setting [1]; 56.8% under setting [2]; 64.9% under setting [3]; 70% under setting [4]; 62.8% under setting [5]; 52.6% under setting [6].
Consider `CC(C(=O)O)c1ccc2c(c1)C(=O)Cc1ccccc1O2` (stereo not drawn) [Compound 12, 2-(10,11-dihydro-11-oxodibenzo[b,f]oxepin-2-yl)-propionic acid], for which the inhibition in vivo at 10 mg/kg runs as follows: under setting [7], 34.2%; under setting [8], 58.3%; under setting [9], 79.4%; under setting [10], 83.1%; under setting [11], 71.1%; under setting [12], 51.4%.
Turning to `CC(C(=O)O)c1ccc2c(c1)CCc1ccccc1O2` (stereo not drawn) [Compound 13, 2-(10,11-dihydrodibenzo[b,f]oxepin-2-yl)-propionic acid], the inhibition in vivo at 10 mg/kg under setting [1] was 42.4%; the inhibition in vivo at 10 mg/kg under setting [2] came to 55.5%; the inhibition in vivo at 10 mg/kg under setting [3] was found to be 65.4%; the inhibition in vivo at 10 mg/kg under setting [4] came to 63.3%; the inhibition in vivo at 10 mg/kg under setting [5] amounted to 49.1%; the inhibition in vivo at 10 mg/kg under setting [6] was 33.3%.
Consider `CCOC(=O)C(C)c1ccc2c(c1)CCc1ccccc1O2` (stereo not drawn) [Compound 14, Ethyl 2-(10,11-dihydrodibenzo[b,f]oxepin-2-yl)-propionate], for which the inhibition in vivo at 10 mg/kg was 48.6% under setting [1]; 67.6% under setting [2]; 60.3% under setting [3]; 53.2% under setting [4]; 35.8% under setting [5]; 26% under setting [6].
Take `CC(C(N)=O)c1ccc2c(c1)CCc1ccccc1O2` (stereo not drawn) [Compound 15, 2-(10,11-dihydrodibenzo[b,f]oxepin-2-yl)-propionamide]: the inhibition in vivo at 10 mg/kg came to 36.1% under setting [1]; 44.1% under setting [2]; 53.3% under setting [3]; 48.7% under setting [4]; 33% under setting [5]; 27.2% under setting [6].
